The text below walks through data of patent US20210386814A1, “METHODS AND COMPOUND FOR THE TREATMENT OF MALARIA” (priority 2020, published 2021).

In brackets after ≈: the same amount, converted by molar mass. Like-named read-outs stand apart in the source and are kept apart here.

Assay [1] concerns the target P. falciparum lactate dehydrogenase (Plasmodium falciparum, UniProt Q27743). To be noted: cited from earlier work.
Assay [2] addresses P. falciparum aspartic protease plasmepsin II (Plasmodium falciparum, UniProt P46925). Conditions: read-out: 1050, plasmepsin II; cited from earlier work.
Another assay concerns P. falciparum culture. To be noted: cited from earlier work.
Assay [3] concerns RF laboratory strain of HIV-1. The assay can be described thus: antiviral evaluation in CEM-SS cell line against HIV-1 RF. It counts as cell-based. Conditions: CEM-SS cells, HIV-1 RF strain. As for the experimental part: The purified fraction 90I may yield a fifty percent effective concentration (EC50) of 0.020 ug/ml. At the same time, there was no discernible drug induced toxicity in this study (50% inhibitory concentration ([…]) was greater than the high-test concentration of 100 ug/ml).

A further assay concerns gamma interferon. The assay can be described thus: in vitro gamma interferon production. The class given is cell-based. An excerpt: Moreover, the increase in gamma interferon may have a far greater impact on reversing the course of HIV-1 infection. […] Therefore, further evaluation of 90I in malaria cell-lines may provide the opportunity to find new clinical uses for an established HIV antiprotease patented drug. Also, the purpose of this approach is to lower the costs and shorten the timeframe of product development.

P. falciparum aspartic protease plasmepsin II, sequence (P46925 125-453): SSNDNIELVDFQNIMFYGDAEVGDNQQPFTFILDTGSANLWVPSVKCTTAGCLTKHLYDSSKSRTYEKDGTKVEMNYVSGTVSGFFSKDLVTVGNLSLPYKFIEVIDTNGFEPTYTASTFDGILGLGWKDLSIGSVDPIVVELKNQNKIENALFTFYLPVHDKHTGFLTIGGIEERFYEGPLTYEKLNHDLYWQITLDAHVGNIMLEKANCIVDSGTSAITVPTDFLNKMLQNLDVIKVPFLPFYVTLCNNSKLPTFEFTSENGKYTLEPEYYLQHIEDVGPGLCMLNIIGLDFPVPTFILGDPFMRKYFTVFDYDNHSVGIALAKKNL
P. falciparum lactate dehydrogenase, sequence (Q27743 whole entry): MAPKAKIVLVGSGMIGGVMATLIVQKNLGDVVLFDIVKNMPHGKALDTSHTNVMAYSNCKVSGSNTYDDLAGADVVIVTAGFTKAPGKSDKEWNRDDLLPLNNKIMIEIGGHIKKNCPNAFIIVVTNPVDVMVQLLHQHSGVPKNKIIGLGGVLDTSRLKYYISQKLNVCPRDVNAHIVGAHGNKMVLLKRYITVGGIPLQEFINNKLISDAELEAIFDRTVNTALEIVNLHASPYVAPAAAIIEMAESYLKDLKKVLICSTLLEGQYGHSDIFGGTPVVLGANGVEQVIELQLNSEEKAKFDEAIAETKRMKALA

As for `CCN(CC)CCCC(C)Nc1ccnc2cc(Cl)ccc12` (centres unmarked) [chloroquine], the “inhibition of lactate dehydrogenase” value in assay [1] is “weak inhibitor”.
Take `Cc1cccc(C)c1OCC(=O)N[C@@H](Cc1ccccc1)[C@@H](O)C[C@H](Cc1ccccc1)NC(=O)[C@H](C(C)C)N1CCCNC1=O` [lopinavir]: the IC50 in assay [2] was 2700 nM.
Consider `CC(C)C[C@H](NC(=O)[C@H]1O[C@@H]1C(=O)O)C(=O)NCCCCN=C(N)N` (relative stereo) [E64, trans-Epoxysuccinyl-L-leucylamido(4-guanidino)butane], for which the “effects on P. falciparum culture” value with P. falciparum culture is “blocked parasite release”.
Regarding `CCCC[C@@H](C=O)NC(=O)[C@H](CC(C)C)NC(=O)OCc1ccccc1` [calpeptin], in the assay on P. falciparum culture (1 μM), the “effects on P. falciparum culture” value is “All three of these effects were also seen”.
For the compound `O=C(OCCOCCOC(=O)c1ccccc1)c1ccccc1` [90I, diethylene glycol dibenzoate], the “therapeutic index (T1=IC50/EC50)” value in assay [3] was “greater than 5000”. Besides, the EC50 in assay [3] (Human immunodeficiency virus 1, read-out: fifty percent effective concentration (EC50)) was found to be 0.02 µg/mL (≈ 0.0636 µM). Also, the “production of gamma interferon” value with gamma interferon was “increased production of gamma interferon”.
For the compound `CC(=O)N[C@@H](CC(C)C)C(=O)N[C@@H](CC(C)C)C(=O)N[C@H](C=O)CCCNC(=N)N` [Leupeptin, N-acetyl-L-leucyl-L-leucy-L-argininal], the “effects on P. falciparum culture” value with P. falciparum culture (10 μg/ml) is reported as “All three of these effects were also seen”.
